{"source": "patent US20240324595A1", "about": "“HERBICIDAL COMPOSITIONS” (SYNGENTA CROP PROTECTION AG, priority 2021, published 2024)", "format_in_all_cases": "in vivo", "key": {"[1]": {"system": "Digitaria insularis (TRCIN)", "assay": "Post-emergence efficacy, Digitaria insularis", "text": "(§1) When active ingredients are combined, the activity to be expected (E) for any given active ingredient combination obeys the so-called Colby Formula and can be calculated as follows (Colby, S. R., Calculating synergistic and antagonistic responses of herbicide combination, Weeds, Vol. 15, pages 20-22; 1967): • ppm=milligrams of active ingredient (a.i.) per litre • X=% action by first active ingredient using p ppm of the active ingredient • Y=% action by second active ingredient using q ppm of the active ingredient.\n(§2) According to Colby, the expected action of active ingredients A+B using p+q ppm of active ingredient is represented by the following formula: […]\n(§3) If the action actually observed (O) is greater than the expected action E then the action of the combination is super-additive, i.e. there is a synergistic effect. In mathematical terms, synergism corresponds to a positive value for the difference of (O−E). In the case of purely complementary addition of activities (expected activity), said difference (O−E) is zero. A negative value of said difference (O−E) signals a loss of activity compared to the expected activity.\n(§4) The efficacy of various compositions of the present invention were tested against plants including the following species: Amaranthus retroflexus (AMARE) Cenchrus echinatus (CCHEC), Echinochloa crus-gali (ECHCG), Eleusine indica (ELEIN), Setaria faberi (SETFA) Sorghum halapense (SORHA) and Digitaria insularis (TRCIN). The compositions are applied post-emergence, and the tests evaluated at certain days-after-application (DAA) as indicated. The tests were evaluated (100=total damage to plant; 0=no damage to plant), and the results are shown below in tables B1 to B13."}, "[2]": {"system": "Cenchrus echinatus (CCHEC)", "assay": "Post-emergence efficacy, Cenchrus echinatus", "settings": "14 DAA", "text": "as §1, §2, §3, §4"}, "[3]": {"system": "Eleusine indica (ELEIN)", "assay": "Post-emergence efficacy, Eleusine indica", "settings": "15 DAA", "text": "as §1, §2, §3, §4"}, "[4]": {"system": "Setaria faberi (SETFA)", "assay": "Post-emergence efficacy, Setaria faberi", "settings": "15 DAA", "text": "as §1, §2, §3, §4"}, "[5]": {"system": "Amaranthus retroflexus (AMARE)", "assay": "Post-emergence efficacy, Amaranthus retroflexus", "settings": "13 DAA", "text": "as §1, §2\nIf the action actually observed (O) is greater than the expected action E then the action of the combination is super-additive, i.e. there is a synergistic effect. […]\nas §4"}, "[6]": {"system": "Echinochloa crus-gali (ECHCG)", "assay": "Post-emergence efficacy, Echinochloa crus-gali", "text": "as §1, §2, §3, §4"}, "[7]": {"system": "Sorghum halapense (SORHA)", "assay": "Post-emergence efficacy, Sorghum halapense", "settings": "15 DAA", "text": "as §1, §2, §3, §4"}}}
{"smiles": "CC#Cc1ccc(C2=C(OC(=O)OC)C3CCC(C3)C2=O)c(OC)c1", "note": "(stereo not drawn) [Ic]", "values": [{"measurement": "Observed (100=total damage to plant; 0=no damage)", "setting": "[1]; POST, 14 DAA, rate 100 g/ha", "result": 5}, {"measurement": "Observed (100=total damage to plant; 0=no damage)", "setting": "[1]; POST, 16 DAA, rate 3.125 g/ha", "result": 15}, {"measurement": "Observed (100=total damage to plant; 0=no damage)", "setting": "[1]; Table B8, POST, 14 DAA, rate 0.47 g/ha", "result": 0}, {"measurement": "Observed (100=total damage to plant; 0=no damage)", "setting": "[1]; Table B8, POST, 14 DAA, rate 0.94 g/ha", "result": 0}, {"measurement": "Observed (100=total damage to plant; 0=no damage)", "setting": "[1]; Table B8, POST, 14 DAA, rate 1.88 g/ha", "result": 11}, {"measurement": "Observed (100=total damage to plant; 0=no damage)", "setting": "[2]; rate 3 g/ha", "result": 50}, {"measurement": "Observed (100=total damage to plant; 0=no damage)", "setting": "[2]; rate 6 g/ha", "result": 72}, {"measurement": "Observed (100=total damage to plant; 0=no damage)", "setting": "[2]; rate 12.5 g/ha", "result": 79}, {"measurement": "Observed (100=total damage to plant; 0=no damage)", "setting": "[2]; rate 25 g/ha", "result": 79}, {"measurement": "Observed (100=total damage to plant; 0=no damage)", "setting": "[3]; rate 12.5 g/ha", "result": 72}, {"measurement": "Observed (100=total damage to plant; 0=no damage)", "setting": "[3]; rate 25 g/ha (Ic)", "result": 79}, {"measurement": "Observed (100=total damage to plant; 0=no damage)", "setting": "[4]; rate 3 g/ha", "result": 10}, {"measurement": "Observed (100=total damage to plant; 0=no damage)", "setting": "[4]; rate 6 g/ha", "result": 29}, {"measurement": "Observed (100=total damage to plant; 0=no damage)", "setting": "[5]; rate 7.5 g/ha", "result": 4}, {"measurement": "Observed (100=total damage to plant; 0=no damage)", "setting": "[6]; Table B7, POST, 20 DAA, rate 3.125 g/ha", "result": 14}, {"measurement": "Observed (100=total damage to plant; 0=no damage)", "setting": "[6]; Table B7, POST, 20 DAA, rate 25 g/ha", "result": 87}, {"measurement": "Observed (100=total damage to plant; 0=no damage)", "setting": "[6]; Table B10, POST, 15 DAA, rate 3.125 g/ha", "result": 45}, {"measurement": "Observed (100=total damage to plant; 0=no damage)", "setting": "[6]; Table B10, POST, 15 DAA, rate 6.25 g/ha", "result": 50}, {"measurement": "Observed (100=total damage to plant; 0=no damage)", "setting": "[6]; Table B10, POST, 15 DAA, rate 12.5 g/ha", "result": 60}, {"measurement": "Observed (100=total damage to plant; 0=no damage)", "setting": "[6]; Table B11, POST, 20 DAA, rate 3.125 g/ha", "result": 14}, {"measurement": "Observed (100=total damage to plant; 0=no damage)", "setting": "[6]; Table B12, POST, 13 DAA, rate 0.94 g/ha (Ic)", "result": 3}, {"measurement": "Observed (100=total damage to plant; 0=no damage)", "setting": "[6]; Table B12, POST, 13 DAA, rate 1.88 g/ha", "result": 24}, {"measurement": "Observed (100=total damage to plant; 0=no damage)", "setting": "[6]; Table B12, POST, 13 DAA, rate 7.5 g/ha", "result": 54}, {"measurement": "Observed (100=total damage to plant; 0=no damage)", "setting": "[6]; Table B13, POST, 15 DAA, rate 3.125 g/ha", "result": 45}, {"measurement": "Observed (100=total damage to plant; 0=no damage)", "setting": "[6]; Table B13, POST, 15 DAA, rate 6.25 g/ha", "result": 50}, {"measurement": "Observed (100=total damage to plant; 0=no damage)", "setting": "[6]; Table B13, POST, 15 DAA, rate 12.5 g/ha", "result": 60}, {"measurement": "Observed (100=total damage to plant; 0=no damage)", "setting": "[7]; rate 3.125 g/ha", "result": 28}, {"measurement": "Observed (100=total damage to plant; 0=no damage)", "setting": "[7]; rate 6.25 g/ha", "result": 45}, {"measurement": "Observed (100=total damage to plant; 0=no damage)", "setting": "[7]; rate 12.5 g/ha", "result": 75}]}
{"smiles": "O=C(O)CNCP(=O)(O)O", "note": "[Compound B2c, glyphosate, reference compound]", "values": [{"measurement": "Observed (100=total damage to plant; 0=no damage)", "setting": "[2]; rate 125 g/ha", "result": 1}]}
{"smiles": "CCOC(=O)COc1ncccc1Oc1cc(-n2c(=O)cc(C(F)(F)F)n(C)c2=O)c(F)cc1Cl", "note": "[Compound B3c, epyrifenacil, reference compound]", "values": [{"measurement": "Observed (100=total damage to plant; 0=no damage)", "setting": "[1]; POST, 16 DAA, rate 1 g/ha", "result": 33}, {"measurement": "Observed (100=total damage to plant; 0=no damage)", "setting": "[3]; rate 25 g/ha (B3c)", "result": 16}]}
{"smiles": "O=C(O)CC[n+]1ccc(-c2cccnn2)cn1.[Cl-]", "note": "[Compound B4c.27]", "values": [{"measurement": "Observed (100=total damage to plant; 0=no damage)", "setting": "[4]; rate 37.5 g/ha", "result": 37}]}
{"smiles": "COC(=O)CCNC(=O)C(C)Sc1cc(-n2c(=O)cc(C(F)(F)F)n(C)c2=O)c(F)cc1Cl", "note": "(stereo not drawn) [Compound B3j, tiafenacil, reference compound]", "values": [{"measurement": "Observed (100=total damage to plant; 0=no damage)", "setting": "[6]; Table B10, POST, 15 DAA, rate 8 g/ha", "result": 40}, {"measurement": "Observed (100=total damage to plant; 0=no damage)", "setting": "[6]; Table B10, POST, 15 DAA, rate 16 g/ha", "result": 55}]}
{"smiles": "c1cc[n+]2c(c1)-c1cccc[n+]1CC2", "note": "[Compound B4b1, diquat dibromide, reference compound]", "values": [{"measurement": "Observed (100=total damage to plant; 0=no damage)", "setting": "[6]; Table B13, POST, 15 DAA, rate 60 g/ha", "result": 43}]}
{"smiles": "CS(=O)(=O)NC(=O)c1cc(Oc2ccc(C(F)(F)F)cc2Cl)ccc1[N+](=O)[O-]", "note": "[Compound B3e, fomesafen, reference compound]", "values": [{"measurement": "Observed (100=total damage to plant; 0=no damage)", "setting": "[1]; Table B8, POST, 14 DAA, rate 7.5 g/ha", "result": 15}, {"measurement": "Observed (100=total damage to plant; 0=no damage)", "setting": "[1]; Table B8, POST, 14 DAA, rate 15 g/ha", "result": 20}, {"measurement": "Observed (100=total damage to plant; 0=no damage)", "setting": "[1]; Table B8, POST, 14 DAA, rate 30 g/ha", "result": 35}]}
{"smiles": "Cc1nn(-c2cc(NS(C)(=O)=O)c(Cl)cc2Cl)c(=O)n1C(F)F", "note": "[Compound B3i, sulfentrazone, reference compound]", "values": [{"measurement": "Observed (100=total damage to plant; 0=no damage)", "setting": "[7]; rate 60 g/ha", "result": 13}]}
{"smiles": "C#CCN1C(=O)C(F)(F)Oc2cc(F)c(-n3c(=O)n(C)c(=S)n(C)c3=O)cc21", "note": "[Compound B3k, trifludimoxazin, reference compound]", "values": [{"measurement": "Observed (100=total damage to plant; 0=no damage)", "setting": "[6]; Table B11, POST, 20 DAA, rate 4 g/ha", "result": 38}, {"measurement": "Observed (100=total damage to plant; 0=no damage)", "setting": "[6]; Table B11, POST, 20 DAA, rate 30 g/ha", "result": 31}]}
{"smiles": "C#CCN1C(=O)COc2cc(F)c(N3C(=O)C4=C(CCCC4)C3=O)cc21", "note": "[Compound B3d, flumioxazin, reference compound]", "values": [{"measurement": "Observed (100=total damage to plant; 0=no damage)", "setting": "[6]; Table B7, POST, 20 DAA, rate 4 g/ha", "result": 8}, {"measurement": "Observed (100=total damage to plant; 0=no damage)", "setting": "[6]; Table B7, POST, 20 DAA, rate 15 g/ha", "result": 49}]}
{"smiles": "CP(=O)(O)CC[C@H](N)C(=O)O", "note": "[Compound B1c, L-glufosinate/glufosinate-P, reference compound]", "values": [{"measurement": "Observed (100=total damage to plant; 0=no damage)", "setting": "[1]; POST, 14 DAA, rate 600 g/ha", "result": 60}]}
{"smiles": "CCOC(=O)C1(C)CC(c2cc(-n3c(=O)cc(C(F)(F)F)n(C)c3=O)c(F)cc2Cl)=NO1", "note": "(stereo not drawn) [Compound B3l, 3-(2-chloro-4-fluoro-5-(3-methyl-2,6-dioxo-4-trifluoromethyl-3,6-dihydropyrimidin-1(2H)-yl)phenyl)-5-methyl-4,5-dihydroisoxazole-5-carboxylic acid ethyl ester, reference compound]", "values": [{"measurement": "Observed (100=total damage to plant; 0=no damage)", "setting": "[6]; Table B12, POST, 13 DAA, rate 0.94 g/ha (B3l)", "result": 33}, {"measurement": "Observed (100=total damage to plant; 0=no damage)", "setting": "[6]; Table B12, POST, 13 DAA, rate 3.75 g/ha", "result": 73}]}
{"smiles": "CCOC(=O)C(Cl)Cc1cc(-n2nc(C)n(C(F)F)c2=O)c(F)cc1Cl", "note": "(stereo not drawn) [Compound B3b, carfentrazone-ethyl, reference compound]", "values": [{"measurement": "Observed (100=total damage to plant; 0=no damage)", "setting": "[5]; rate 3.75 g/ha", "result": 75}]}
